According to patent US5010095A, “N-(W-substituted alkyl)-'-(imidazol-4-yl)alkyl)guanidine” (Cedona Pharmaceuticals B.V., priority 1986, dated 1991):
“Also recorded” adds a separate entry of the source. Where two headings read alike, the source gives them in different places.

Legend:
[1] = target: T1, histamine H1 (guinea-pig ileum) (Cavia porcellus, UniProt P31389); assay: Histamine H1-activity, guinea-pig ileum
T1 construct: from tissue; host or cells: guinea-pig ileum (isolated organ)
Source text: (§1) The values for the H1 -activity given are the mean of at least two experiments in quadruplicate, while the values for the H2 -activity result from at least two experiments in duplicate.

[2] = target: T2, histamine H1 (guinea-pig trachea) (Cavia porcellus, UniProt P31389); assay: Histamine H1-activity, guinea-pig trachea; settings: for Kb: ± 0,2, mean of at least two experiments in quadruplicate
T2 construct: Single segments were cut from the trachea; from tissue; host or cells: guinea-pig trachea (isolated segments)
T2 sequence (P31389 whole entry): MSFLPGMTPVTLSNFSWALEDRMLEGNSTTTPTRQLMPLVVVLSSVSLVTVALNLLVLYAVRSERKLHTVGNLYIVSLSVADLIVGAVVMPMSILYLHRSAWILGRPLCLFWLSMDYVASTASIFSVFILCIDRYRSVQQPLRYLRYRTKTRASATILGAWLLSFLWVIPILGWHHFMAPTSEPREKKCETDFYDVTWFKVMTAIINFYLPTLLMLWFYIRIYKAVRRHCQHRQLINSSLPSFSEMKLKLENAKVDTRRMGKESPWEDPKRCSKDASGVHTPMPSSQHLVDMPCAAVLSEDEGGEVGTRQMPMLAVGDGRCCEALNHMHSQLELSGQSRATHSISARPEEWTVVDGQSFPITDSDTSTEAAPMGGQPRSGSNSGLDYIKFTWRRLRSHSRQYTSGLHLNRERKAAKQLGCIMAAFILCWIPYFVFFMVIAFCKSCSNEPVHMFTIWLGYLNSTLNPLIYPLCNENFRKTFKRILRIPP
Experimental: as §1
(§2) Male guinea-pigs (350-500 g) were killed by a blow on the head and the trachea removed. Single segments were cut from the trachea, loaded with 0.4 g and placed in an organ bath (35° C.) containing 120 mM NaCl, 6 mM KCl, 1 mM MgSO4, 2.5 mM CaCl2, 1 mM NaH2 PO4, […] and 6 mM glucose. The organ bath was gassed with oxygen containing 5% CO2. PD2, intrinsic acitivity and antagonistic activity of the test compounds were determined from isotonically recorded, cumulative dose-response curves.

[3] = target: T3, histamine H2 (guinea-pig right atrium) (Cavia porcellus, UniProt P47747); assay: Histamine H2-activity, guinea-pig right atrium
T3 construct: from tissue; host or cells: guinea-pig right atrium (isolated organ)
T3 sequence (P47747 whole entry): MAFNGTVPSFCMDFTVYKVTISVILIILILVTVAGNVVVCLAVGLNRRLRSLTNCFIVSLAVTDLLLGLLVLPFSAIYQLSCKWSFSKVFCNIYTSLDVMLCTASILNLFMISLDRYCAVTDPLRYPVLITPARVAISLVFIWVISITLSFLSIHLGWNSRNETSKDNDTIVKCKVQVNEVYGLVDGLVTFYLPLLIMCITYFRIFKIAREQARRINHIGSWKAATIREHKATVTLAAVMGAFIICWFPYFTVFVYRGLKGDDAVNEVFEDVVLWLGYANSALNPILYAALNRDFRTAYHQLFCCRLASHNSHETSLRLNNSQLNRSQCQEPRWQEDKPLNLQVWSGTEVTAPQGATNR
Source text: as §1
(§3) Guinea-pig right atrium H2
(§4) Ther., 19, 545-550 (1984).

[4] = target: T4, histamine H2 (guinea-pig gastric fundus) (Cavia porcellus, UniProt P47747); assay: Histamine H2-activity, acid secretion of the isolated gastric fundus of the guinea-pig
T4 construct: acid secretion of the isolated gastric fundus of the guinea-pig; from tissue; host or cells: guinea-pig gastric fundus (isolated organ)
T4 sequence (P47747 whole entry): as above
Source text: as §1
(§5) Guinea-pig gastric acid secretion (H2)

histamine H1 = target: T5, histamine H1 (Cavia porcellus, UniProt P31389); assay: Histamine H1-activity, overall discussion (ileum/trachea); parameters: species or system guinea-pig; settings: structure-activity discussion
T5 construct: functional contraction
T5 sequence (P31389 whole entry): as the sequence (P31389 whole entry) above
Experimental: The results of pharmacological tests with said new compounds are summarized in Table A (H1 -activity) and Table B (H2 -activity). The values for the H1 -activity given are the mean of at least two experiments in quadruplicate, while the values for the H2 -activity result from at least two experiments in duplicate.
as §2

histamine H2 [5] = target: T6, histamine H2 (Cavia porcellus, UniProt P47747); assay: Histamine H2-activity, overall discussion (atrium/gastric fundus); parameters: species or system guinea-pig; settings: atrium and fundus; structure-activity discussion
T6 construct: functional chronotropy and acid secretion
T6 sequence (P47747 whole entry): as the sequence (P47747 whole entry) above
Source text: as §1, §3, §4, §5

histamine H2 [6] = settings: cited from earlier work
[7] = guinea-pig ileum, ±0,2, mean of at least two experiments in quadruplicate
[8] = guinea-pig right atrium, ±0,1, at least two experiments in duplicate
[9] = read-out: Histamine H2-activity, α (intrinsic activity), guinea-pig right atrium, at least two experiments in duplicate
[10] = guinea-pig gastric fundus, ±0,2, at least two experiments in duplicate
[11] = read-out: Histamine H2-activity, α (intrinsic activity), guinea-pig gastric fundus, at least two experiments in duplicate
[12] = guinea pig, read-out: Histamine H2-activity, atrium, α (intrinsic activity)
[13] = guinea pig, read-out: Histamine H2-activity, gastric fundus, α (intrinsic activity)
[14] = gastric fundus, versus compound I

T1 sequence (P31389 whole entry): as the sequence (P31389 whole entry) above

| Kb [1, 7] | Kb ([2]; guinea-pig trachea) | EC50 [3, 8] | Emax [3, 9] | EC50 [4, 10] | Emax [4, 11] | Compound | H1-activity, comparison in words (histamine H1) | H2-activity, comparison in words (histamine H2 [5]) | also measured |
| --- | --- | --- | --- | --- | --- | --- | --- | --- | --- |
| 25.1 nM | 15.8 nM | 398 nM | 100% | 316 nM | 70% | N=C(NCCCc1c[nH]cn1)NCCN(Cc1ccccc1)c1ccccc1 [Compound XI, N-[2-(N'-benzyl-N'-phenylamino)ethyl]-N"-[3-(imidazol-4-yl)propyl]guanidine] | slightly more potent H1 -antagonist than the oxygen analogue compound II; also recorded: most potent H1 -antagonists of this series of impromidine analogues | – | potency relative to histamine on the atrium, in words ([3]; atrium): about twice as potent as histamine on the atrium; activity relative to impromidine, atrium ([3]; atrium, % of the activity of impromidine): about 4%; activity relative to impromidine, gastric fundus ([4]; gastric fundus, % of the activity of impromidine): about 1%; activity relative to histamine, gastric fundus ([4]; gastric fundus, times the activity of histamine): 10 times |
| – | – | – | – | – | – | NCCc1c[nH]cn1 [Histamine, reference compound] | – | – | Emax [3, 12]: 100%; Emax [4, 13]: 100% |
| 31.6 nM | 25.1 nM | 3160 nM | 90% | 1580 nM | 40% | N=C(NCCCc1c[nH]cn1)NCCOC(c1ccccc1)c1ccccc1 [III, N-[2-(diphenylmethoxy)ethyl]-N'-[3-(imidazol-4-yl)propyl] guanidine] | most potent H1 -antagonists of this series of impromidine analogues | – | H1 potency relative to the starting compound, ileum ([1]; guinea-pig ileum, versus sulphur starting compound (I)): ten times as potent as the starting compound; H1 potency relative to the starting compound, trachea ([2]; guinea-pig trachea, versus sulphur starting compound (I)): 25 times; decrease in H2-agonism, atrium, versus compound I ([3]; atrium, sulphur of compound I replaced by oxygen): 20 fold; change in intrinsic activity on the gastric fundus, in words [4, 14]: remarkable decrease in intrinsic activity; change in pD2 on the gastric fundus, in words [4, 14]: less pronounced |
| 631 nM | – | 2510 nM | 90% | 10000 nM | 0% | N=C(NCCc1c[nH]cn1)NCCC(c1ccccc1)c1ccccc1 [VIII, N-(3.3-diphenylpropyl)-N'-[2-(imidazol-4-yl)ethyl] guanidine] | almost as potent H1 -antagonists as compound I | – | H2-activity on the atrium, comparison in words ([3]; guinea-pig right atrium): remarkable high potency on the guinea-pig right atrium |
| 501 nM | – | 20 nM | 100% | – | – | N=C(NCCCc1c[nH]cn1)NCCC(c1ccccc1)c1ccccc1 [Compound IX, N-(3.3-diphenylpropyl)-N'-[3-(imidazol-4-yl)propyl]guanidine] | Analogous results; also recorded: almost as potent H1 -antagonists as compound I | Analogous results | H2-activity on the atrium, comparison in words ([3]; guinea-pig right atrium): remarkable high potency on the guinea-pig right atrium; also recorded: almost as potent as impromidine on the atrium; also recorded: most potent compounds of this series on the guinea-pig right atrium |
| – | – | – | – | – | – | N=C(NCCSC(c1ccccc1)c1ccccc1)NCCc1c[nH]cn1 [II, N-[2-(diphenylmethylthio)ethyl]-N'-[2-imidazol-4-yl)ethyl guanidine] | no effect on the H1 -activity | marked decrease in H2 -activity, both on the atrium and on the fundus | Kb [1]: 398 nM; EC50 [3]: 15800 nM; Emax [3, 12]: 80%; EC50 [4]: 12600 nM; Emax [4, 13]: 50% |
| – | – | – | – | – | – | CN(C)CCCSC(=N)N [dimaprit, reference compound] | – | – | effect on resting state and histamine induced contractions of the trachea ([2]; up to 10^-3 M): neither effect on the resting state of the organ nor on the histamine induced contractions |
| 200 nM | 631 nM | 100 nM | 100% | 2510 nM | 90% | N=C(NCC=C(c1ccccc1)c1ccccc1)NCCCc1c[nH]cn1 [Compound X] | almost as potent H1 -antagonists as compound I | – | decrease in H2-activity, atrium, on introduction of a double bond ([3]; atrium, introduction of a double bond (saturated analogue: IX)): 4 fold; H2-activity on the atrium, comparison in words ([3]; guinea-pig right atrium): most potent compounds of this series on the guinea-pig right atrium |
| – | – | – | – | – | – | Cc1[nH]cnc1CSCCNC(=N)NCCCc1c[nH]cn1 [Impromidine, N-[2-(5-methylimidazol-4-ylmethylthio)ethyl]-N'-[3-(imidazol-4-yl)propyl]guanidine, reference compound] | – | – | Kb [1]: 3160 nM; EC50 [4]: 3.16 nM; Emax [4, 13]: 100%; potency relative to histamine (histamine H2 [6]; dependent on the used test system, Proc. VIIIth Internat. Symp. Med. Chem. Uppsala 1985): 5-800 times; stimulation of gastric acid secretion, in words (histamine H2 [6]; drawback for clinical use): relatively high potency in stimulating the gastric acid secretion; histamine H2-agonist character, in words (histamine H2 [6]; literature): specific and the most potent histamine H2 -agonist; also recorded: either behaves like a partial or like a complete agonist |
| 3160 nM | – | 63.1 nM | 100% | 25.1 nM | 100% | NC(=NCCCc1c[nH]cn1)NCCSCc1ccccc1 [XII, reference compound] | no change in H1 -activity | – | decrease in H2-activity, atrium, versus impromidine ([3]; guinea-pig atrium, 5-methylimidazole of impromidine replaced by phenyl): 4 fold; decrease in H2-activity, gastric fundus, versus impromidine ([4]; gastric fundus, 5-methylimidazole of impromidine replaced by phenyl): 8 fold |

| Compound | Kb [1, 7] | Kb ([2]; guinea-pig trachea) | EC50 [3, 8] | Emax [3, 9] | EC50 [4, 10] | Emax [4, 11] | H1-activity, comparison in words (histamine H1) | H2-activity, comparison in words (histamine H2 [5]) | also measured |
| --- | --- | --- | --- | --- | --- | --- | --- | --- | --- |
| N=C(NCCCc1c[nH]cn1)NCCSC(c1ccccc1)c1ccccc1 [Compound I, N-[2-(diphenylmethylthio)ethyl]-N'-[3-(imidazol-4-yl)propyl] guanidine] | 316 nM | – | 158 nM | 100% | 794 nM | 100% | – | – | H2-activity on the atrium, comparison in words ([3]; guinea-pig right atrium): most potent compounds of this series on the guinea-pig right atrium; decrease in H2-agonism, fundus, versus compound XII ([4]; fundus, extra phenyl group in compound XII): 32 fold |
| Cc1ccccc1C(SCCNC(=N)NCCCc1c[nH]cn1)c1ccccn1 (stereo not drawn) [Compound VII, N-[3-(imidazol-4-yl)propyl]-N'-(2-[2-methyl-alpha-(2-pyridyl)benzylthio]ethyl)guanidine] | 398 nM | 1000 nM | 1260 nM | 80% | – | – | almost as potent H1 -antagonists as compound I | almost as potent H2 -antagonist as the para methyl and fluoro analogues | – |
| Cc1ccc(C(SCCNC(=N)NCCCc2c[nH]cn2)c2ccccc2)cc1 (stereo not drawn) [IV, N-[3-(imidazol-4-yl)propyl]-N'-2-[α-phenyl-4-methylbenzylthio]ethyl guanidine] | 398 nM | – | 1260 nM | 80% | – | – | only little or no effect at all on the H1 -antagonism | strong decrease in H2 -activity | – |
| Cc1ccc(C(SCCNC(=N)NCCc2c[nH]cn2)c2ccccc2)cc1 (stereo not drawn) [Compound V] | 251 nM | – | 100000 nM | 0% | 100000 nM | 0% | Analogous results; also recorded: only little or no effect at all on the H1 -antagonism | Analogous results; also recorded: strong decrease in H2 -activity | – |
| N=C(NCCCc1c[nH]cn1)NCCSC(c1ccccc1)c1ccc(F)cc1 (stereo not drawn) [Compound VI, N-[2-(α-phenyl-4-fluorobenzylthio)ethyl]-N'-[3-(imidazol-4-yl)propyl]guanidine] | 251 nM | 158 nM | 1260 nM | 80% | 3160 nM | 40% | only little or no effect at all on the H1 -antagonism | strong decrease in H2 -activity | – |
